Values of other authors in PMC4474874, “Effect of JAK Inhibitors on Release of CXCL9, CXCL10 and CXCL11 from Human Airway Epithelial Cells” (PLoS ONE, 2015).
pIC50: −log10 of the molar value. Read-outs that look alike come from different tables or passages of the source.

Tests used:
TrkA [1] = test system: TrkA; parameters: method as in PMID 18094329; settings: inactive or IC50 >30μM; read-out: IC50 against TrkA; cited from earlier work
Lck = test system: Lck; parameters: method as in PMID 18094329; settings: at concentrations >5μM; cited from earlier work
PKCb = test system: PKCb; parameters: method as in PMID 18094329; settings: inactive or IC50 >30μM; read-out: IC50 against PKCb; cited from earlier work
JAK2 = test system: JAK2; parameters: method as in PMID 18094329; settings: cellular assay; cited from earlier work
AuroraA = test system: AuroraA; parameters: method as in PMID 18094329; settings: inactive or IC50 >30μM; read-out: IC50 against AuroraA; cited from earlier work
cdk6 = test system: cdk6; parameters: method as in PMID 18094329; settings: inactive or IC50 >30μM; read-out: IC50 against cdk6; cited from earlier work
[2] = test system: ~30 other kinase pathways; parameters: method as in PMID 18094329; settings: including AKT, GSK3β, IKKβ, IKKi, MAPK1, MAPKAP-K2, MASK, MET, and ROCK1; cited from earlier work
GSK3b = test system: GSK3b; parameters: method as in PMID 18094329; settings: inactive or IC50 >30μM; read-out: IC50 against GSK3b; cited from earlier work
TaoK3 = test system: TaoK3; parameters: method as in PMID 18094329; settings: inactive or IC50 >30μM; read-out: IC50 against TaoK3; cited from earlier work
PDK1 = test system: PDK1; parameters: method as in PMID 18094329; settings: inactive or IC50 >30μM; read-out: IC50 against PDK1; cited from earlier work
MAPKAP-K2 = test system: MAPKAP-K2; parameters: method as in PMID 18094329; settings: inactive or IC50 >30μM; read-out: IC50 against MAPKAP-K2; cited from earlier work
MASK = test system: MASK; parameters: method as in PMID 18094329; settings: inactive or IC50 >30μM; read-out: IC50 against MASK; cited from earlier work
cdk2 = test system: cdk2; parameters: method as in PMID 18094329; settings: inactive or IC50 >30μM; read-out: IC50 against cdk2; cited from earlier work
AKT = test system: AKT; parameters: method as in PMID 18094329; settings: inactive or IC50 >30μM; read-out: IC50 against AKT; cited from earlier work
MAPK1 = test system: MAPK1; parameters: method as in PMID 18094329; settings: inactive or IC50 >30μM; read-out: IC50 against MAPK1; cited from earlier work
INSR = test system: INSR; parameters: method as in PMID 18094329; settings: inactive or IC50 >30μM; read-out: IC50 against INSR; cited from earlier work
ROCK1 = test system: ROCK1; parameters: method as in PMID 18094329; settings: inactive or IC50 >30μM; read-out: IC50 against ROCK1; cited from earlier work
FGFR1 = test system: FGFR1; parameters: method as in PMID 18094329; settings: inactive or IC50 >30μM; read-out: IC50 against FGFR1; cited from earlier work
CHK1 = test system: CHK1; parameters: method as in PMID 18094329; settings: inactive or IC50 >30μM; read-out: IC50 against CHK1; cited from earlier work
PAK4 = test system: PAK4; parameters: method as in PMID 18094329; settings: inactive or IC50 >30μM; read-out: IC50 against PAK4; cited from earlier work
JAK3 [3] = test system: JAK3; parameters: method as in PMID 18094329; settings: read-out: IC50 against JAK3; cited from earlier work
MAP4K4 = test system: MAP4K4; parameters: method as in Coe et al., 25; settings: ATP at the Km; ref Coe et al., 25; cited from earlier work
[4] = test system: human T lymphocytes (JAK1/2); parameters: method as in Coe et al., 25; settings: ref Coe et al., 25; read-out: IC50 IL-12-induced IFNγ release by human T lymphocytes (JAK1/2); cited from earlier work
TrkA [5] = test system: TrkA; parameters: method as in Coe et al., 25; settings: ATP at the Km; ref Coe et al., 25; cited from earlier work
JAK3 [6] = test system: JAK3; parameters: method as in Coe et al., 25; settings: ref Coe et al., 25, cited from earlier work
[7] = test system: human T lymphocytes (JAK1/3); parameters: method as in Coe et al., 25; settings: ref Coe et al., 25; read-out: IC50 IL-2-induced P-STAT5 human T lymphocytes (JAK1/3); cited from earlier work
MLK1 = test system: MLK1; parameters: method as in Coe et al., 25; settings: ATP at the Km; ref Coe et al., 25; cited from earlier work
TAOK2 = test system: TAOK2; parameters: method as in Coe et al., 25; settings: ATP at the Km; ref Coe et al., 25; cited from earlier work
TYK2 = test system: TYK2; parameters: method as in Coe et al., 25; settings: ref Coe et al., 25, cited from earlier work
MST4 = test system: MST4; parameters: method as in Coe et al., 25; settings: ATP at the Km; ref Coe et al., 25; cited from earlier work

## C[C@@H]1CCN(C(=O)N2CCCC2)C[C@@H]1N(C)c1ncnc2[nH]ccc12 [PF956980]
TrkA [1]
  pIC50: < 4.52
Lck
  effect against Lck: modest effects
PKCb
  pIC50: < 4.52
JAK2
  pIC50: 6.73
AuroraA
  pIC50: < 4.52
cdk6
  pIC50: < 4.52
[2]
  effect on ~30 other kinase pathways: no effect
GSK3b
  pIC50: < 4.52
TaoK3
  pIC50: < 4.52
PDK1
  pIC50: < 4.52
MAPKAP-K2
  pIC50: < 4.52
MASK
  pIC50: < 4.52
cdk2
  pIC50: < 4.52
AKT
  pIC50: < 4.52
MAPK1
  pIC50: < 4.52
INSR
  pIC50: < 4.52
ROCK1
  pIC50: < 4.52
FGFR1
  pIC50: < 4.52
CHK1
  pIC50: < 4.52
PAK4
  pIC50: < 4.52
JAK3 [3]
  pIC50: ~8.40

## CCc1cc(O)ccc1-c1ccc2c(-c3nc4ccccc4[nH]3)n[nH]c2c1 [PF1367550, 4-(3-(1H-benzo[d]imidazol-2-yl)-1H-indazol-6-yl)-3-ethylphenol]
MAP4K4
  pIC50: 7.22
[4]
  pIC50: 7.35
TrkA [5]
  pIC50: 6.64
JAK3 [6]; 1mM ATP, read-out: IC50 JAK3 1 mM
  pIC50: 7.85
JAK3 [6]; ATP at the Km, read-out: IC50 JAK3 Km
  pIC50: 9.00
[7]
  pIC50: 7.96
MLK1
  pIC50: 7.27
TAOK2
  pIC50: 6.11
TYK2; 1mM ATP, read-out: IC50 TYK2 1 mM
  pIC50: 8.08
TYK2; ATP at the Km, read-out: IC50 TYK2 Km
  pIC50: 9.10
MST4
  pIC50: 6.16
